The results in this text go back to US20240415825A1, “COMPOUNDS FOR THE TREATMENT OF MALARIA” (FUNDACIÓ INSTITUT DE BIOENGINYERIA DE CATALUNYA, priority 2021, published 2024).

Molecules are shown by their SMILES. Like-named read-outs stand apart in the source and are kept apart here.

One data set concerns the target T1, Aβ40 (Homo sapiens, UniProt P05067).
T1 construct: Amyloid-β peptide fragment 1-40 (Aβ40); purchased GenScript
Nature of the data set: In vitro Aβ40 aggregation (ThT fluorescence, TEM). Format: biochemical. The following applies: 25 μM Aβ40.

Data set [1] relates to P. falciparum cultures. Nature of the data set: Combination assay of AID-X-2020 and artemisinin (isobologram, FIC). Format: cell-based, Plasmodium falciparum. The following applies: combined with artemisinin in different ratios. The method, then: For assays of AID-X-2020 and artemisinin, serial dilutions of both compounds were prepared at different concentration ratios (1:0, 0:1, 1:1, 1:2, 2:1, 1:5 and 5:1).
To assess the synergistic effect of AID-X-2020 and artemisinin, IC50 values for each individual compound in the mixtures were calculated as described above and plotted in an isobologram (“x” value=AID-X-2020 IC50 and “y” value=artemisinin IC50). Fractional inhibitory concentration (FIC) values were calculated by dividing the IC50 of one of the compounds in the mixture by the IC50 of the same compound in the 1:0 or 0:1 ratio mixture.

Data set [2] can be described thus: In vivo toxicity assay in mice. Also noted: species or system BALB/c mice. The protocol:
BALB/c female and male mice (Janvier Laboratories) were maintained with unlimited access to food and water under standard environmental conditions (20-24° C. and 12/12 h light/dark cycle). […] First, the lowest dose was intravenously injected to one female and one male mice. An oxygen stream of 4% isoflurane was used to anesthetize the mice, which were then maintained during the whole procedure (less than 3 minutes) with 2.5% isoflurane.
After the administration, mice were observed and different parameters related to their behavior (lethargy, motility alterations, seizures, coma, automutilation, aggressiveness, vocalizations, stereotyped movements) and physical conditions (pain, respiratory disturbances, tachycardia or bradycardia, dehydration, hair loss, body weight loss, dermatitis, bad hygiene, pruritus, tearing) were followed. If after 48 h no deleterious effects were observed, the following dose was administered to two other male and female mice.

The next data set relates to P. falciparum W2 strain. Nature of the data set: Growth inhibition, chloroquine-resistant W2 strain. Format: cell-based. Conditions: Plasmodium falciparum. An excerpt: (§1) P. falciparum parasites of chloroquine-sensitive (3D7 strain) and chloroquine- and artemisinin-resistant strains were processed as described in section 1.1.3 of EXAMPLE 1.
(§2) In particular, the P. falciparum resistant strains were the following: (1) strain W2 MRA-157 (BEI Resources, managed by ATCC) which is chloroquine-resistant; (2) strains 3D7 harboring the K13 mutations associated to artemisinin resistance, either M5791 or R561H (both provided by Dr. David A. Fidock and referenced in Stokes, B. H. et al., 2021); (3) Cam 3.11 strain which is chloroquine and sulfadoxine/pyrimethamine-resistant; and (4) Cam 3.11 strain modified to carry K13 mutations associated to artemisinin-resistant strains, either R561H or R539T, therefore being multiresistant strains. All Cam 3.11 strains (3) and (4) were provided by Dr. David A. Fidock and are referenced in Straimer, J. et al., 2015 and Stokes, B. H. et al., 2021.
(§3) Then, the required amount of AID-X-2020 was added to each well at different concentrations (0.0001, 0.001, 0.01, 1 and 10 μM) and triplicates.

The subject of data set [3] is artemisinin-resistant P. falciparum strains (3D7 and Cam 3.11 with K13 mutations). Nature of the data set: Growth inhibition, artemisinin-resistant strains. It counts as cell-based. Conditions: Plasmodium falciparum, 3D7, read-out: IC50 in artemisinin-resistant strains.
Source text: as §1, §2, §3

Data set [4] concerns P. falciparum cultures. Nature of the data set: ThT analysis of protein aggregation in live P. falciparum cultures. Format: cell-based, Plasmodium falciparum. Conditions: 90 min with 90 nM, equal protein content. The protocol: After 90 min, 4 h and 30 h, a Percoll purification was done in order to isolate parasitized cells from uninfected RBCs. After Percoll purification, the pellets of late stage parasites and a control non-infected RBC suspension containing the same proportion of cells than the purified cultures were resuspended in 50 μl of lysis buffer (4.5 mg/ml NaCl in water supplemented with EDTA-free protease inhibitor cocktail, PIC, Hoffman-La Roche, Basel, Switzerland; 1 PIC tablet/10 ml water) and incubated overnight, at 4° C. under stirring, with the objective of releasing their inner content. After this time, lysed samples were spun down and the protein content in the supernatant was quantified with the bicinchoninic acid assay (Thermo Fisher Scientific), following the manufacturer's instructions. 30 μg of protein from each supernatant were further diluted with PBS to a final volume of 70 μl and plated on a 96-well black plate in triplicates. ThT fluorescence was measured as described above.

For data set [5], the system named is P. falciparum NF54-gexp02-Tom strain gametocytes. Nature of the data set: microbe, parasite or virus in culture. Format: cell-based. The following applies: Plasmodium falciparum, NF54, 48 h. The protocol:
Cultures of the P. falciparum NF54-gexp02-Tom strain (developed and authenticated by Portugaliza, H. P. et al., 2019 and kindly provided by Prof. Alfred Cortes), were maintained in standard conditions in RPMI medium supplemented with 0.5% Albumax II and 2 mM choline, synchronized in ring stages with sorbitol lysis, and diluted to 2% parasitemia. To trigger sexual conversion, choline was removed from the medium and cultures were maintained in the same conditions for 48 h after synchronization (cycle 0). In the next cycle (cycle 1), parasites were treated with 50 mM N-acetylglucosamine (GlcNac) in order to kill asexual parasites, and maintained in RPMI supplemented with 10% human serum. Medium was refreshed daily and GlcNac was kept during 4 days.
Controls of untreated parasites as well as of parasites treated with a lethal dose of chloroquine were prepared. Gametocytemia was monitored daily by light microscopy until the majority of parasites (˜90%) could be identified as stage V gametocytes. At that point, Giemsa smears of each well were prepared and mature gametocytes were manually counted (10,000 cells were counted for each replica by two investigators blinded to group assignment). […] Afterwards, the culture was treated for 48 h with the drugs and the gametocytemia determined as above.

T1 sequence (P05067 672-711 limits assumed, species assumed): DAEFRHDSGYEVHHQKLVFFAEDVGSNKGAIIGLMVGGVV
Method for Aβ40: For the in vitro analysis of As peptide fragment 1-40 (Aβ40) aggregation, 1 mg of Aβ40 (GenScript) was dissolved in 500 μL of 1,1,1,3,3,3-hexafluoro-2-propanol (HFIP, Fluka) under vigorous stirring for 1 h and sonicated for 30 min in a sonication bath. Afterwards, the solution was stirred for 1 h and maintained at 4° C. for 30 min. Aliquots were prepared, HFIP was evaporated under a nitrogen stream for a few seconds and the peptide was stored at −20° C. […] The final sample always contained less than 5% DMSO to avoid interference of this solvent on Aβ40 amyloid fibril formation. Finally, ThT treatment was performed as described above.
25 μM ThT was added to each sample and fluorescence was measured by exciting samples at 440 nm and recording the emission from 465 nm to 600 nm. A blank measurement of each sample was done before adding ThT.
A carbon-coated copper grid was deposited on top of a 50-μL drop of each solution for 30 min. Then, the excess liquid was removed with filter paper and the grid was placed on top of a water drop for 30 s and finally negatively stained for 2 min with 20 μL of 2% uranyl acetate. Samples were observed using a JEM 1010 transmission electron microscope (JEOL Ltd., Japan). Images were acquired using a CCD Orius camera (Gatan, Inc., USA).

For `CCN(CC)c1ccc(/C=C/c2cc[n+](CCCCCCCCCC[n+]3ccc(/C=C/c4ccc(N(CC)CC)cc4)c(C)c3)cc2C)cc1` [AID-X-2020, 1,1′-(decane-1,10-diyl)bis{4-[(E)-4-(diethylamino)styryl]-3-methylpyridin-1-ium} dibromide], at Aβ40, the “inhibition of the aggregation of Aβ40” value is reported as “strong inhibitor”. Besides, the ZFIC values entry in the data set on P. falciparum cultures [1] is reported as “higher than 1.5”. Further, the “dose at which adverse effects start” value in data set [2] (female mice) is reported as 10 mg/kg. Further, the “dose at which toxicity starts being observed” value in data set [2] (male mice) is 17 mg/kg. The 50% inhibitory concentration (IC50) was 90 ± 1 nM in the data set with P. falciparum W2 strain, 90 to 160 nM in data set [3], 95 ± 3 nM in data set [5] (read-out: IC50 on early gametocytes) and 103 ± 3 nM in data set [5] (read-out: IC50 on mature stage V (late) gametocytes). The “ThT fluorescence of culture extracts” value with P. falciparum cultures [4] is “reduced emission spectrum”.
